The text below walks through data of patent US20090162447A1, “Spherically Shaped Substances” (priority 2005, published 2009).

What all share (type): physicochemical
A short description of series [1]: Angle of repose test on tilted smooth tile. The following applies: tile tilted 1° at a time; angle at which first particles slide. From the text:
Another definition of the angle of repose is the maximum angle of tilt of a bed of the powder beyond which the powder cannot retain a static pose. To measure the angle of repose according to this definition, the powder of the present embodiments can be placed on a smooth solid bed surface. The bed surface can then be tilted very slowly about the horizontal axis to a maximum angle without the particles sliding. When the bed surface is tilted beyond the maximum angle, sliding occurs, and the angle of the bed surface to the horizontal once the particles begin sliding is defined as the angle of repose. An angle of repose measured by this technique is oftentimes referred to as tilting angle of repose.
The diltiazem hydrochloride particles were subjected to an angle of repose test. The particles were placed on a smooth tile positioned horizontally. The tile was tilted slowly each time at 1° about the horizontal axis. The angle of repose was defined as the angle at which the first particles had slide.

Series [2] in a line: Surface smoothness from particle images (Scanning Electron Microscopy). The note with it: as shown in images of the particles. The procedure: An additional estimate of the particles' smoothness was performed by analyzing the samples via Scanning Electron Microscopy (SEM). FIGS. 9A-C are images of the raw sucrose particles (FIG. 9A), sucrose particles of the present embodiments (FIG. 9B) and the prior art particles (FIG. 9C).

A short description of series [3]: Shape factor and aspect ratio by DSA-10 image analyzer. The note with it: samples (i)-(iii); for shape factor: 4πA/P^2 by DSA-10 during constant flow of slurry; for aspect ratio: minimal Feret / maximal Feret. The procedure: The sphericity of the particles was also measured using a DSA-10 image analyzer (Ankersmid Ltd., Israel). The analysis was performed during constant flow of slurry containing the particles. Images of about 1000 particles were analyzed by the image analyzer to determine the sphericity of the particles. In these measurements the sphericity was also as defined 4πA/P^2. To distinguish between the sphericity values obtained as determined using the image processing software and the sphericity values obtained using the image analyzer, the latter are referred to below as “shape factor”.
Beside sphericity, the DSA-10 image analyzer was used to characterize the shape of the particles by their aspect ratio, defined as the ratio between the minimal Feret and the maximal Feret of the particles.

Series [4] can be described thus: Sphericity by optical microscope images and image processing software (Buehler Omnimet). The protocol: Thus, denoting the area of the image by A and the perimeter of the image by P, the sphericity, s, can be defined as s=4πA/P^2. As will be appreciated by one of ordinary skill in the art, when the image is a perfect circle, A=π(P/2π)^2=P^2/4π and s=1. When the area of the image is 0 (i.e., the image is a line or a curve) s=0. The samples were imaged through a transmission optical microscope (magnification: ×12.5). The images were analyzed by image processing software (Buehler Omnimet®). Each image processing comprised the following steps. In a first step the particles were delineated for 1 cycle; in a second step, dark areas were defined by thresholding; in a third step, the dark areas were filled; in a fourth step, particles smaller than 20×20 pixels were eliminated; in a fifth step border particles were eliminated; and in a sixth step the delineation of the non-eliminated particles were processed by the octagonal kernel of the software for 3 cycles. FIG. 19 is an image showing the raw sucrose particles after image processing. Following image processing the area, A, and perimeter, P, of each particle was measured from the images. The sphericity of each particle was defined as 4πA/P^2.

Series [5] in a line: Flow rate test with Hall flow meter. The following applies: 5 millimeter diameter nozzle tilted at an angle of 30°. The text has this: The flowability of the powder of the present embodiments can also be characterized by its flow rate at certain conditions. The flowability can be measured using a suitable flow meter, such as, but not limited to, a Hall flow meter. Thus, according to a preferred embodiment of the present invention the powder of the preset embodiments is capable of maintaining a flow rate of at least 6, more preferably at least 8, more preferably at least 10 gram per square centimeter per second, through a 5 millimeters nozzle tilted at an angle of 30°.
The metformin particles were subjected to a flow rate test using a Hall flow meter having a 5 millimeter diameter nozzle. The nozzle was tilted at an angle of 30°.

Series [6] is described as follows: BET specific surface area measurement (TriStar 3000 analyzer). The procedure:
A BET surface of the particle refers to a surface measured using a method developed by Brunauer, Emmett and Teller and commonly referred to as BET method. According to the BET method, the surface area is determined by allowing the surface to interact with nitrogen molecules and analyzing the corresponding adsorption curves. The BET method is well known in the art and is found in many publications (to this end see, e.g., S. J. Gregg and K. S. Sing, “Adsorption, Surface Area and Porosity”, Academic Press, London, 1995).
Following drying, a sample of the formed sucrose particles was subjected to BET measurement using a TriStar 3000 analyzer (Micromeritics, Georgia, USA), to obtain a specific surface area for the particles (surface area per unit mass). An averaged value of 0.03 m^2/gr was measured. For comparison, the specific surface area of a sample of prior art particles of similar size (355-500 micrometer Suglets®, purchased from NP Pharm, France), was also measured. The specific surface area of the particles of this sample was 0.27 m^2/gr. Thus, the sucrose particles produced according to the teaching of the present embodiments of the invention are characterized by a specific surface area which is about 9 times smaller than the specific surface area characterizing the prior art. As the average size of the samples was similar, the specific surface was used as a measure of the smoothness of the particles.

Series [7] can be described thus: Ratio of optical surface area to BET surface area / rugosity. The text has this: In an additional embodiment, the smoothness is defined by a ratio between an optical surface area of the particle and a BET surface area thereof.
An optical surface area of the particle is the surface area of the particle as measured optically. Such measurement can be performed, for example, by obtaining an image of the particle using an optical microscope and estimating its surface area, by approximating the shape of the particle to a symmetrical shape. For example, when the shape of the particle is similar to a sphere, its optical surface area can be approximated by 4πR^2, where R is the radius of the particle, as measured from the image. When the shape of the particle is similar to a spheroid, having a long axis a and an aspect ratio of ε, its surface area can be approximated by 2πa^2 ε (ε+t/b), where b is given by b^2=1−ε^2, and t (in radians) is given by sin(t)=b. As will be appreciated by one ordinarily skilled in the art the aspect ratio can also be approximated as the square root of the sphericity defined above.
A BET surface of the particle refers to a surface measured using a method developed by Brunauer, Emmett and Teller and commonly referred to as BET method. According to the BET method, the surface area is determined by allowing the surface to interact with nitrogen molecules and analyzing the corresponding adsorption curves. […]

[8] abbreviates: Table 2, samples (i)-(iii), hydrochloride.
The mark [9] stands for this setting: 4πA/P^2, Table 1, magnification ×12.5.

Values joined by “and” are separate entries in the source; they are usually repeats but may differ in a detail not shown here. Equal values may be shown once. Where a name gives a salt, the structure may show the parent alone.

For the compound `COc1ccc([C@@H]2Sc3ccccc3N(CCN(C)C)C(=O)[C@@H]2OC(C)=O)cc1` [diltiazem hydrochloride], the angle of repose in series [1] is 38 °. In series [2], the “surface of the particles (image)” value is “substantially smooth”.

For the compound `COc1ccc([C@@H]2Sc3ccccc3N(CCN(C)C)C(=O)[C@@H]2OC(C)=O)cc1.Cl` [raw dilitiazem hydrochloride, diltiazem hydrochloride, reference compound], in series [3] (hydrochloride), the shape factor was 0.7032 and 0.7056 and 0.6847; the aspect ratio is 0.5416 and 0.5442 and 0.5293. The angle of repose in series [1] came out at 48 °. The sphericity in series [4] (setting [8]) is 0.5278 and 0.4773 and 0.4954.

Turning to `CN(C)C(=N)N=C(N)N` [raw metformin, metformin, reference compound], in series [3], the shape factor was 0.8244 and 0.8214 and 0.8404; the aspect ratio was 0.6900 and 0.6434 and 0.6420. The sphericity in series [4] (Table 2, samples (i)-(iii)) is 0.6146 and 0.5675 and 0.5720. Besides, in series [5] (listed as raw metformin particles), the flow rate result is reported as “no flow was observed”.

Consider `NC(=O)N1c2ccccc2CC(=O)c2ccccc21` [raw oxcarbazepine, oxcarbazepine, reference compound], for which, in series [3], the shape factor is 0.7789 and 0.7908 and 0.7886; the aspect ratio is 0.6102 and 0.6062 and 0.6221. Further, in series [4] (Table 2, samples (i)-(iii)), the sphericity is 0.4997 and 0.4760 and 0.4144.

As for `OC[C@H]1O[C@@](CO)(O[C@H]2O[C@H](CO)[C@@H](O)[C@H](O)[C@H]2O)[C@@H](O)[C@@H]1O` [raw sucrose, sucrose, reference compound], the sphericity in series [4] (setting [9]) is 0.773 ± 0.05.

Consider `OC[C@H]1O[C@@](CO)(O[C@H]2O[C@H](CO)[C@@H](O)[C@H](O)[C@H]2O)[C@@H](O)[C@@H]1O` [rounded 300-600 μm sucrose, sucrose], for which the “specific surface area (surface area per unit mass), BET” value in series [6] (dried powder sample, averaged value) was 0.03 m^2/gr. Further, in series [6] (particles whose average diameter is about 400 micrometer), the BET specific surface result is reported as “about 0.03 gr/m^2”. Further, the “specific surface area, times smaller than prior art” value in series [6] (versus 355-500 micrometer Suglets of similar size) is listed as “about 9 times”. Also, the rugosity in series [7] (corresponds to optical/BET surface area ratio) is given as 1.5-3. In addition, the optical specific surface area in series [7] (spherical or spherical-like particle, diameter about 400 micrometer) lay within 0.01 to 0.02 m²/g. In series [2], the “surface of the particles (image)” value was “substantially smooth”. The compound also yielded a sphericity in series [4] (setting [9]) of 0.875 ± 0.027.

With `COc1ccc([C@@H]2Sc3ccccc3N(CCN(C)C)C(=O)[C@@H]2OC(C)=O)cc1.Cl` [rounded dilitiazem hydrochloride 20-45 μm] [diltiazem hydrochloride], in series [3] (hydrochloride), the shape factor is 0.8426 and 0.8168 and 0.8467; the aspect ratio is 0.6915 and 0.6935 and 0.6947. Further, in series [4] (setting [8]), the sphericity is 0.5106 and 0.5220 and 0.5139.

`COc1ccc([C@@H]2Sc3ccccc3N(CCN(C)C)C(=O)[C@@H]2OC(C)=O)cc1.Cl` [rounded dilitiazem hydrochloride above 45 μm] [diltiazem hydrochloride]: in series [3] (hydrochloride), the shape factor is 0.8229 and 0.8211 and 0.8368; the aspect ratio is 0.7015 and 0.6986 and 0.7053. Further, the sphericity in series [4] (setting [8]) was 0.6572 and 0.6601 and 0.6940.

Consider `COc1ccc([C@@H]2Sc3ccccc3N(CCN(C)C)C(=O)[C@@H]2OC(C)=O)cc1.Cl` [rounded dilitiazem hydrochloride mix 20-45 μm + 45 μm] [diltiazem hydrochloride], for which, in series [3] (hydrochloride), the shape factor was 0.8383 and 0.8419 and 0.8279; the aspect ratio is 0.6828 and 0.6923 and 0.6731. Besides, the sphericity in series [4] (setting [8]) was 0.5315 and 0.6004 and 0.5942.

As to `CN(C)C(=N)N=C(N)N` [rounded metformin, metformin], in series [3], the shape factor is 0.8719 and 0.8739 and 0.8843; the aspect ratio was 0.6791 and 0.6740 and 0.6904. For the same compound, the “surface of the particles (image)” value in series [2] is given as “substantially smooth”. The sphericity in series [4] (Table 2, samples (i)-(iii)) was 0.7634 and 0.7676 and 0.7344. The flow rate in series [5] (listed as rounded metformin particles) was 10.2 gr/(cm^2×s).

With `NC(=O)N1c2ccccc2CC(=O)c2ccccc21` [rounded oxcarbazepine, oxcarbazepine], in series [3], the shape factor is 0.8138 and 0.7996 and 0.8174; the aspect ratio is 0.5875 and 0.5887 and 0.5829. In series [4] (Table 2, samples (i)-(iii)), the sphericity is 0.6103 and 0.5707 and 0.4969.
